“And” between values parts separate entries of the source, which are not always exact repeats. Equal values may be shown once.
Legend:
[1] = tested on: BRCA2, ATR and BLM mRNA expression; test: qPCR of DDR transcripts in OCI-AML5; assay type: cell-based, H. sapiens; conditions: OCI-AML5, 4 h; S656 5 μM, THZ531 200 nM; normalized to HPRT, DMSO = 1
Protocol: RNA was harvested in Trizol (ThermoFisher) and isolated according to manufacturer’s protocol and reverse transcribed using MMLV reverse transcriptase and random primers (ThermoFisher). Quantitative PCR was performed using validated assays designed for the Universal Probe Library (Roche) on the Viia7 (Applied Biosystems). qPCR primer sequences are available in Table EV2. Relative quantity of target is normalized to HPRT and compared to normalized expression of control cells.

[2] = tested on: primary AML specimens; test: Discovery screen: 6-day single-dose (1 μM) viability, CellTiterGlo; assay type: cell-based, human; conditions: 6 days
Description: As recently described, our group conducted a high-throughput screening (HTS) assay assessing the response of 56 primary AML specimens to a library of 10,000 compounds (Moison et al, [2024]). This diverse small molecule library encompassed compounds with a wide range of structural diversity (Bristol-Myers Squibb), including clinical-grade compounds. Primary AML specimens representing the biological diversity of the disease, along with normal hematopoietic cells (CD34^+ cord blood cells), were exposed to a 6-day single-dose compound treatment (1 μM) and viability was assessed using the CellTiterGlow luminescent assay (Appendix Fig. S1A–C). A profile of inhibition—or fingerprint—was generated for each small molecule across the 56 primary AML specimens tested. […] Among these candidates, 12 were validated in cell lines and primary specimens and selected based on their chemotypes. […] Of note, highly sensitive AML specimens spanned various AML subgroups, underscoring the broad activity of S656 across genetically diverse AMLs (Fig. 1D).
Freshly thawed primary AML specimens were used for chemical screens. […] Cell viability was evaluated after 6 days in culture using the CellTiterGlo assay according to the manufacturer’s instruction. Percentage of inhibition for dose response curves was calculated as 100 – (100 × (mean luminescence [compound]/mean luminescence [DMSO])). […]

[3] = tested on: OCI-AML5 cells proteome; test: Whole-proteome mass spectrometry analysis; assay type: cell-based, H. sapiens; conditions: OCI-AML5, 5 hours, 8 μM S656
Protocol: Whole proteome was performed as previously described (Moison et al, [2024]). We treated 10 million OCI-AML5 cells in triplicate with DMSO or 8 μM S656 for 5 h. Collected cells were washed in PBS and cell pellets lysed in Triton X-100 buffer (10 mM PIPES pH 7.4, 0.5% Triton X-100, 300 mM Sucrose, 100 mM NaCl, 3 mM MgCl2, 0.5 mM EDTA + protease inhibitors). Following MS analysis, the data were processed using PEAKS X Pro (Bioinformatics Solutions, Waterloo, ON) and a Uniprot human database (20366 entries) with trypsin as the enzyme. Differential Enrichment analysis of Proteomics data (DEP) package (Zhang et al, [2018]) in R was used to analyze the data (excluding proteins identified based on a single peptide), including data filtering, normalization, imputation of missing values and statistical testing of differentially expressed proteins.

[4] = tested on: OCI-AML5 and U937 cell lines; test: Synergistic interaction assay with THZ531 (Bliss score); assay type: cell-based
Description: 3. It may be worthwhile to investigate whether the CDK12/13 inhibitor THZ531 could synergize with S656 or analogues like UOM-005636 that specifically degrade Cyclin K, in combination cytotoxicity assays, assessing selective suppression of AML viability over normal cells. Both […]
inhibiting CDK12, and S656 / UOM-005636 by degrading Cyclin K. Similar synergistic effects were observed by Katharina et al., where THZ531 promoted prostate ca ncer cell sensitivity to androgen deprivation therapy [Frei, K et. al. Inhibition of the Cyclin K-CDK12 complex induces DNA damage and increases the effect of androgen deprivation therapy in prostate cancer. Int J […]
Indeed, THZ531 is a covalent CDK12/13 inhibitor that specifically binds to the kinase pocket of […]
pocket of CDK12, and that pre-incubation with THZ531 competes with S656-mediated Cyclin K degradation (see Figure 5E).
We performed a synergistic interaction assay between THZ531 and S656 or UOM-005636 in OCI-AML5 and U937 cell lines (see below). […]
interactions between THZ531 and our cyclin K degrader molecules. This is likely due to both drugs competing for the same binding site, rather than acting through complementary pathways. […]

[5] = tested on: OCI-AML5 cells; test: Cell cycle profile (Hoechst 33342 flow cytometry); assay type: cell-based, H. sapiens; conditions: 24 h
Protocol: For cell cycle experiments, 500,000 cells in exponential growth phase were incubated in pre-warmed media containing 10 μg/mL Hoechst 33342 during 45 min in incubator (37 °C in 5% CO2). After wash, cells were resuspended in cold media and recorded on BD FACSCelesta cytometer at low flow rate and analyzed with FlowJo v10 (Tree Star).

[6] = tested on: tumor growth; design: method as in Dieter et al. (PMID34289372); conditions: orally in mice, 20 mg/kg, 5 days per week; ref Dieter et al. (PMID34289372); cited from earlier work

Compound	ATR mRNA [1]	BRCA2 mRNA [1]	inhibition at 1 µM ([2]; Homo sapiens, 144 h, 1 μM, in 10 out of 56 primary AML specimens, read-out: growth inhibition) [%]	% inhibition S656 at 1uM ([2]; discovery screen, one primary AML specimen per row (Patient ID in c0)) [%]	log2FC CCNK [3]	log2FC GNL1 [3]	log2FC PM34 [3]	log2FC PMYT1 [3]	log2FC RIOK2 [3]	synergistic interaction with THZ531 (Bliss score) [4]	percentage of cells in G1 ([5]; S656 1uM)	percentage of cells in G2/M ([5]; S656 1uM)	percentage of cells in S ([5]; S656 1uM)	percentage of cells in G1 ([5]; S656 3uM)	percentage of cells in G2/M ([5]; S656 3uM)	percentage of cells in S ([5]; S656 3uM)	tolerability in animals [6]	tumor growth in vivo [6]
CN(C)c1ccc(CC(=O)Nc2ncc(SCc3cccnc3)s2)cc1 [S656]	0.3 and 0.2683 and 0.3666	0.127 and 0.1345 and 0.2247	> 70	0.00	-7.264	-6.619	-4.278	-4.723	-4.751	moderate to very low synergistic	50.8% and 63.1% and 58.6%	26.6% and 23.9% and 22.5%	21.5% and 12.1% and 18.1%	69.1% and 60.5% and 65.7%	17.7% and 29.1% and 24.3%	12% and 9.62% and 8.06%		
Cn1cc(-n2cnc3c(NCc4nc5cc(Cl)c(Cl)cc5[nH]4)nc(N4CCOCC4)nc32)cn1 [SR4835]																	well tolerated	effectively inhibited tumor growth

Reference: paper PMC12152147, “DDB1 engagement defines the selectivity of S656 analogs for cyclin K degradation over CDK inhibition” (EMBO Reports, 2025)
